Consider 24 molecules from US8722887B2, “Sulfonylpyrazole and sulfonylpyrazoline carboxamidine derivatives as 5-HT6 antagonists” (Abbvie Bahamas, Ltd., priority 2006, dated 2014).

Like-named read-outs stand apart in the source and are kept apart here.

The target in series [1] is T1, 5-HT6 receptor (Homo sapiens, UniProt P50406). To be noted: 5-HT6 receptor (Sleight, 1998); cited from earlier work.
The conditions of series [2]: Sleight, 1998; cited from earlier work.
The conditions of series [3]: Rogers, 1999; cited from earlier work.
For series [4], the target named is T1, 5-HT6 receptor. Kind of series: In vitro affinity for human 5-HT6 receptors, [3H]-LSD binding in CHO cell membranes. More on the design: host or cells: CHO/Gα16/mtAEQ/h5HT6-A1 (CHO AequoScreen recombinant cell line). To be noted: [3H]-LSD 5.0 nM, membranes of CHO cells transfected with human 5-HT6; read-out: 5-HT6 pKi (converted).
Method: Affinity for human 5-HT6 receptors was measured in a membrane preparation of CHO-cells transfected with human 5-HT6 receptors by binding studies using [^3H]-N-Methyl-Lysergic acid diethylamide ([^3H]-LSD) as ligand. […] CHO/Gα16/mtAEQ/h5HT6-A1 cells were grown in T-flasks in CHO-S-SFM II medium (Gibco BRL), supplemented with 1% dialysed FCS, 2 mM L-glutamine, Geneticin 500 μg/ml and Zeocin 200 μg/ml. […] After thawing cells were centrifuged during 3 minutes at 1500 g at 4° C. […] The assay was established so as to achieve steady state conditions and to optimize specific binding. For the 5-HT6 receptor, membranes from 5.10^5 cells were incubated with 5.0 nM [^3H]-LSD at 37° C. for 30 minutes. Nonspecific binding was determined using 10^−5 M serotonin. Assays were terminated by vacuum filtration through glass fiber filters (GF/B) which had been pretreated with 0.5% polyethyleneimine. Total and bound radioactivity was determined by liquid scintillation counting. […] Compounds were tested at a 4 log concentration range; all determinations were performed as triplicates. IC50 values were determined by non-linear regression analysis using Hill equation curve fitting. The inhibition constants (Ki-values) were calculated from the Cheng-Preushoff equation: Ki=IC50:(1+L/Kd) wherein L represents the concentration radioligand ([^3H]-LSD) in the assay, and Kd the affinity of the radioligand for the receptor. Results are expressed as pKi-values, means±SD of at least three separate experiments.
For series [5], the target named is T1, 5-HT6 receptor. The experiment in a line: In vitro functional activity (antagonism) on human 5-HT6 receptors, CHO-human-5HT6-Aequorin assay. More on the design: host or cells: CHO/Gα16/mtAEQ/h5HT6-A1 (CHO AequoScreen recombinant cell line). The format is cell-based.
Method: Human-5-HT6-Aequorin cells express mitochondrial targeted apo-Aequorin. Cells have to be loaded with coelanterazine, in order to reconstitute active Aequorin. […] This luminescent response is dependent on the agonist concentration. Luminescence is measured using the MicroBeta Jet (Perkin Elmer). Agonistic effects of compounds are expressed as pEC50. […] Compounds were tested at a 5 log concentration range, and 3 independent experiments were performed in duplicate.
The mark [6] stands for this setting: antagonism of 10^-8 M α-methylserotonin induced luminescence, CHO-human-5HT6-Aequorin cells, read-out: 5-HT6 pA2 (converted).

T1 sequence (P50406 whole entry): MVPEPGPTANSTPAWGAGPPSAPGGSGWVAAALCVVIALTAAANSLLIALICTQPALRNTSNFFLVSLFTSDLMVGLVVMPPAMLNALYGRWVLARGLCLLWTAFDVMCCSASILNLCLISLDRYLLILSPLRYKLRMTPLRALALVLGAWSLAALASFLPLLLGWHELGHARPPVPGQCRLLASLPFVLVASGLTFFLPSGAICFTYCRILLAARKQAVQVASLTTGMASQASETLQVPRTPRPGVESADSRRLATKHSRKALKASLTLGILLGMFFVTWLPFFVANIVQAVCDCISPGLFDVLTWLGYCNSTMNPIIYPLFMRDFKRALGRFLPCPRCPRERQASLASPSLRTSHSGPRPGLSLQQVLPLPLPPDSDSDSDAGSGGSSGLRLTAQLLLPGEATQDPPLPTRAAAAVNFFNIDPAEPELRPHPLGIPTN

Take `CNc1cc(NS(=O)(=O)c2ccc(N)cc2)nc(NC)n1` [Ro 04-6790]: the Ki in series [1] was 50 nM. For the same molecule, the pharmacokinetics entry in series [2] is listed as “poor”.

`CNc1cc(NS(=O)(=O)c2ccc(N)cc2)cc(NC)n1` [Ro 63-0563]: the Ki in series [1] was 12 nM. Besides, the pharmacokinetics entry in series [2] is recorded as “poor”.

With `COc1ccc(NS(=O)(=O)c2sc3ccc(Cl)cc3c2C)cc1N1CCNCC1` [SB-271046], in series [3], the “performance in the Morris water maze” value was “improved performance”.

`CCC1C=NN(/C(=N/S(=O)(=O)c2ccccc2Cl)N2CCNCC2)C1` (centres unmarked) [compound 16] showed a melting point of 162 to 173 °C. Also, the Ki in series [4] was 200 nM.

`CCC1C=NN(/C(N)=N/S(=O)(=O)c2ccc(Cl)cc2)C1` (centres unmarked) [compound 30] returned a melting point of 114 to 115 °C. The Kb in series [5] (setting [6]) was 1260 nM.

On to `N/C(=N\S(=O)(=O)c1ccc(Cl)s1)N1CC2(C=N1)CCCC2` [compound 107], for which the melting point came to 184 °C.

`CCC1CN(/C(=N/S(=O)(=O)c2cccc(Cl)c2)NC)N=C1C` (centres unmarked) [compound 109] yielded a melting point of 155 to 156 °C.

As to `CCC1CN(/C(N)=N/S(=O)(=O)c2cccc(Cl)c2)N=C1C` (centres unmarked) [compound 113], the melting point is 121 to 123 °C.

On to `CCN/C(=N\S(=O)(=O)c1c(Cl)nc2sccn12)N1CC(C)(C)C=N1` [compound 114], for which the melting point fell in the range of 139 to 141 °C.

In the case of `CC1=NN(/C(N)=N/S(=O)(=O)c2cccc(Cl)c2)CC1(C)C` [compound 115], the melting point was in the range of 135 to 137 °C.

For `CC1=NN(/C(N)=N/S(=O)(=O)c2c(Cl)nc3sccn23)CC1(C)C` [compound 117], the melting point lay in the range of 169 to 171 °C.

Molecule `CCC1CN(/C(N)=N/S(=O)(=O)c2ccc(Cl)s2)N=C1C` (centres unmarked) [compound 121] had a melting point of 155 to 156 °C.

Consider `CC1(C)C=NN(/C(N)=N/S(=O)(=O)c2c(Cl)nc3sccn23)C1` [compound 127], for which the melting point lay within 198 to 199 °C.

In turn, `CCC1CN(/C(N)=N/S(=O)(=O)c2c(Cl)nc3sccn23)N=C1C` (centres unmarked) [compound 130] gave a melting point of 139 to 140 °C. Moreover, the Kb in series [5] (setting [6]) was 6.31 nM. The Ki in series [4] is 79.4 nM.

Regarding `N/C(=N\S(=O)(=O)c1c(Cl)nc2sccn12)N1CC2(C=N1)CCCC2` [compound 131], the melting point fell in the range of 174 to 177 °C.

As for `CCN/C(=N\S(=O)(=O)c1c(Cl)nc2sccn12)N1CC2(C=N1)CCCC2` [compound 133], the melting point fell in the range of 146 to 147 °C. Besides, the Kb in series [5] (setting [6]) is 0.158 nM. Moreover, the Ki in series [4] was 1.58 nM.

As for `CCN/C(=N\S(=O)(=O)c1ccc(N)cc1)N1CC(CC)C=N1` (centres unmarked) [compound 134], the melting point lay in the range of 122 to 125 °C.

With `CN1CCN(/C(=N\S(=O)(=O)c2ccc(F)cc2)N2CCC(c3ccc(Cl)cc3)=N2)CC1` [compound 136], the melting point lay within 179 to 184 °C.

`CN(C)/C(=N\S(=O)(=O)c1ccc(F)cc1)N1CCC(c2ccc(Cl)cc2)=N1` [compound 137] showed a melting point of 149 to 150 °C.

Turning to `CCN/C(=N\S(=O)(=O)c1ccccc1Cl)N1CCC(c2ccccc2)=N1` [compound 138], the melting point is 138 to 140 °C. Further, in series [4], the Ki is 631 nM.

For the molecule `CC1=NN(/C(N)=N/S(=O)(=O)c2cccc(Cl)c2)CC1c1ccccc1` (centres unmarked) [compound 141], the melting point lay in the range of 165 to 166 °C. In addition, the Ki in series [4] was 158 nM.

With `CCN/C(=N\S(=O)(=O)c1ccccc1Cl)N1N=CCC1c1ccccc1` (centres unmarked) [compound 142], the melting point lay in the range of 164 to 166 °C. In addition, in series [5], the Kb was 50.1 nM.

The molecule `CCN/C(=N\S(=O)(=O)c1cccc(Cl)c1)N1N=CCC1c1ccccc1` (centres unmarked) [compound 143] returned a melting point of 124 to 126 °C.

The molecule `CCN/C(=N\S(=O)(=O)N(C)C)N1CC(CC)C=N1` (centres unmarked) [compound 171] displayed a melting point of 60 to 61 °C.
